Molecular target: T1, leukotriene D4 receptors (guinea pig lung membranes) (Cavia porcellus, UniProt Q2NNR5)
T1 construct: prepared from tissues obtained from male Hartley guinea pigs; from tissue; host or cells: guinea pig lung membranes (male Hartley guinea pigs)
T1 sequence (Q2NNR5 1-340): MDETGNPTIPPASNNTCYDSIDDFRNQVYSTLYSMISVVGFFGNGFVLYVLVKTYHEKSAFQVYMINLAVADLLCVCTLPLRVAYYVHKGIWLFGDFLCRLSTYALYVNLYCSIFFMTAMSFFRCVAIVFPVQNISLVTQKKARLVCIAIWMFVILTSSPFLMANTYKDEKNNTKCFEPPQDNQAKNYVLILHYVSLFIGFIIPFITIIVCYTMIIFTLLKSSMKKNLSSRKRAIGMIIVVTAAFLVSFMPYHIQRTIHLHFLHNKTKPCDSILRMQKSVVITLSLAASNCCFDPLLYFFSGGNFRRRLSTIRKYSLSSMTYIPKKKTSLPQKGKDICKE
Assay: [3H]-LTD4 binding studies in guinea pig lung membranes
Procedure: Experimental Procedure for Binding Studies in Guinea-Pig Lungs with Pranlukast and Metabolites
Non-specific binding was determined in the presence of 0.5 uM cold LTD4. Membranes with bound ligand were captured on Whatman GF/C filters using vacuum filtration and a Brandel cell harvester, then washed with ice-cold 25 mM Tris-HCl. pH 7.4. The filters were placed in scintillation vials with 10 ml Ready Protein (Beckman, Fullerton, Calif., U.S.A.) and the radioactivity was determined by scintillation spectrometry.
All data are presented as Mean±S.E.M. Concentration-response curves (0.3-10,000 nM) for each compound were tested in at least 2 assays and run in duplicate. Cell-bound radioactivity was determined for each sample and non-specific binding was established in the presence of 1 uM unlabeled LTD4 and subtracted from control and drug-treated samples.

Row | SMILES | Ki
1 | O=C(Nc1cccc2c(=O)cc(-c3nnn(O)n3)oc12)c1ccc(OCCCCc2ccccc2)cc1 [Example 2, 4-Oxo-8-[4-(4-phenylbutoxy)benzoylamino]-2-(2-hydroxytetrazol-5-yl)-4H-1-benzopyran] | 0.53 nM
2 | O=C(Nc1cccc2c(=O)cc(-c3nnnn3O)oc12)c1ccc(OCCCCc2ccccc2)cc1 [Example 1, 4-Oxo-8-[4-(4-phenylbutoxy)benzoylamino]-2-(1-hydroxytetrazol-5-yl)-4H-1-benzopyran] | 0.22 nM
